What was measured:
[1] = Formation of 1,5-cz-[Ln(Lig)] from Lig and Ln^III ions (metal dependent click-zip), MOPS/NaOH buffer pH 7.0, analytical HPLC (Charts 1, 2); settings: 50% i-PrOH in aq. MOPS/NaOH Buffer pH 7.0
[2] = Formation of 1,5-cz-[M(Lig)] from Lig and M^II ions (metal dependent click-zip) (Charts 6, 7); format: physicochemical; settings: for conversion to 1,5-cz-[M(Lig)], Pt^II: 50% i-PrOH in MOPS/NaOH buffer pH 7.0; for conversion to 1,5-cz-[M(Lig)], Ca^II / conversion to 1,5-cz-[M(Lig)], Cd^II / conversion to 1,5-cz-[M(Lig)], Mn^II / conversion to 1,5-cz-[M(Lig)], Pb^II / conversion to 1,5-cz-[M(Lig)], Pd^II: MOPS/NaOH buffer pH 7.0, TD728 in 50% i-PrOH
[3] = Formation of 1,5-cz-[M(Lig)] from Lig and M^III ions (metal dependent click-zip) (Charts 4, 5); format: physicochemical; settings: for conversion to 1,5-cz-[M(Lig)], Bi^III: 4% DMSO in MOPS/NaOH buffer pH 7.0, TD728 in 50% i-PrOH; for conversion to 1,5-cz-[M(Lig)], Ir^III / conversion to 1,5-cz-[M(Lig)], Ru^III: 50% i-PrOH in MOPS/NaOH buffer pH 7.0; for conversion to 1,5-cz-[M(Lig)], Sc^III / conversion to 1,5-cz-[M(Lig)], Y^III: MOPS/NaOH buffer pH 7.0, TD728, TD827 in 50% i-PrOH; for conversion to 1,5-cz-[M(Lig)], Y^III: TD714 sum of two diastereoisomers
[4] = Dissociation of chelates in aq. 0.1M HCl at RT (acid decomplexation kinetic inertness) (Chart 20); format: physicochemical
[5] = Dissociation of chelates in aq. 1.0M HCl at 80° C. (acid decomplexation kinetic inertness) (Chart 18); format: physicochemical
[6] = Dissociation of chelates in aq. 0.1M HCl at 80° C. (acid decomplexation kinetic inertness) (Chart 19); format: physicochemical
[7] = Dissociation of chelates in aq. 6.0M HCl at 80° C. (acid decomplexation kinetic inertness) (Chart 17); format: physicochemical

CC(C)[Si](C#Cc1cccc(CN2CCN(CC(=O)O)CCN(Cc3cccc(CN=[N+]=[N-])n3)CCN(CC(=O)O)CC2)n1)(C(C)C)C(C)C [TD728]
conversion to 1,5-cz-[Ln(Lig)], Ce^III ([1]; after 1 week at 80° C.): 5%
conversion to 1,5-cz-[Ln(Lig)], Ce^III ([1]; after 1 hour at 80° C.): 0%
conversion to 1,5-cz-[Ln(Lig)], Dy^III ([1]; after 1 week at 80° C.): 54%
conversion to 1,5-cz-[Ln(Lig)], Dy^III ([1]; after 1 hour at 80° C.): 1%
conversion to 1,5-cz-[Ln(Lig)], Er^III ([1]; after 1 week at 80° C.): 72%
conversion to 1,5-cz-[Ln(Lig)], Er^III ([1]; after 1 hour at 80° C.): 1%
conversion to 1,5-cz-[Ln(Lig)], Eu^III ([1]; after 1 week at 80° C.): 35%
conversion to 1,5-cz-[Ln(Lig)], Eu^III ([1]; after 1 hour at 80° C.): 0%
conversion to 1,5-cz-[Ln(Lig)], Gd^III ([1]; after 1 week at 80° C.): 32%
conversion to 1,5-cz-[Ln(Lig)], Gd^III ([1]; after 1 hour at 80° C.): 0%
conversion to 1,5-cz-[Ln(Lig)], Ho^III ([1]; after 1 week at 80° C.): 60%
conversion to 1,5-cz-[Ln(Lig)], Ho^III ([1]; after 1 hour at 80° C.): 1%
conversion to 1,5-cz-[Ln(Lig)], La^III ([1]; after 1 week at 80° C.): 13%
conversion to 1,5-cz-[Ln(Lig)], La^III ([1]; after 1 hour at 80° C.): 0%
conversion to 1,5-cz-[Ln(Lig)], Lu^III ([1]; after 1 week at 80° C.): 88%
conversion to 1,5-cz-[Ln(Lig)], Lu^III ([1]; after 1 hour at 80° C.): 2%
conversion to 1,5-cz-[Ln(Lig)], Nd^III ([1]; after 1 week at 80° C.): 24%
conversion to 1,5-cz-[Ln(Lig)], Nd^III ([1]; after 1 hour at 80° C.): 0%
conversion to 1,5-cz-[Ln(Lig)], Pr^III ([1]; after 1 week at 80° C.): 23%
conversion to 1,5-cz-[Ln(Lig)], Pr^III ([1]; after 1 hour at 80° C.): 0%
conversion to 1,5-cz-[Ln(Lig)], Sm^III ([1]; after 1 week at 80° C.): 34%
conversion to 1,5-cz-[Ln(Lig)], Sm^III ([1]; after 1 hour at 80° C.): 0%
conversion to 1,5-cz-[Ln(Lig)], Tb^III ([1]; after 1 week at 80° C.): 49%
conversion to 1,5-cz-[Ln(Lig)], Tb^III ([1]; after 1 hour at 80° C.): 0%
conversion to 1,5-cz-[Ln(Lig)], Tm^III ([1]; after 1 week at 80° C.): 84%
conversion to 1,5-cz-[Ln(Lig)], Tm^III ([1]; after 1 hour at 80° C.): 1%
conversion to 1,5-cz-[Ln(Lig)], Yb^III ([1]; after 1 week at 80° C.): 88%
conversion to 1,5-cz-[Ln(Lig)], Yb^III ([1]; after 1 hour at 80° C.): 2%
conversion to 1,5-cz-[M(Lig)], Pt^II ([2]; 1 week at 80° C.): 0%
conversion to 1,5-cz-[M(Lig)], Ca^II ([2]; 1 week at 80° C.): 37%
conversion to 1,5-cz-[M(Lig)], Cd^II ([2]; 1 week at 80° C.): 36%
conversion to 1,5-cz-[M(Lig)], Mn^II ([2]; 1 week at 80° C.): 1%
conversion to 1,5-cz-[M(Lig)], Pb^II ([2]; 1 week at 80° C.): 14%
conversion to 1,5-cz-[M(Lig)], Pd^II ([2]; 1 week at 80° C.): 1%
conversion to 1,5-cz-[M(Lig)], Pt^II ([2]; 1 hour at 80° C.): 0%
conversion to 1,5-cz-[M(Lig)], Ca^II ([2]; 1 hour at 80° C.): 0%
conversion to 1,5-cz-[M(Lig)], Mn^II ([2]; 1 hour at 80° C.): 0%
conversion to 1,5-cz-[M(Lig)], Pb^II ([2]; 1 hour at 80° C.): 0%
conversion to 1,5-cz-[M(Lig)], Pd^II ([2]; 1 hour at 80° C.): 1%
conversion to 1,5-cz-[M(Lig)], Cd^II ([2]; 1 hour at 80° C., TD714 sum of two diastereoisomers): 1%
conversion to 1,5-cz-[M(Lig)], Bi^III ([3]; 1 week at 80° C.): 29%
conversion to 1,5-cz-[M(Lig)], Ir^III ([3]; 1 week at 80° C.): 0%
conversion to 1,5-cz-[M(Lig)], Ru^III ([3]; 1 week at 80° C.): 0%
conversion to 1,5-cz-[M(Lig)], Sc^III ([3]; 1 week at 80° C.): 2%
conversion to 1,5-cz-[M(Lig)], Y^III ([3]; 1 week at 80° C.): 50%
conversion to 1,5-cz-[M(Lig)], Bi^III ([3]; 1 hour at 80° C.): 5%
conversion to 1,5-cz-[M(Lig)], Ir^III ([3]; 1 hour at 80° C.): 0%
conversion to 1,5-cz-[M(Lig)], Ru^III ([3]; 1 hour at 80° C.): 0%
conversion to 1,5-cz-[M(Lig)], Sc^III ([3]; 1 hour at 80° C.): 0%
conversion to 1,5-cz-[M(Lig)], Y^III ([3]; 1 hour at 80° C.): 1%

O=C1C[N@@]2CC[N@]3CC[N@@](CC[N@](CC2)Cc2cccc(n2)-c2cnnn2Cc2cc(-c4ccccc4)cc(n2)C3)CC(=O)[O][Yb][O]1 [TD602]
fraction of intact chelate ([4]; 1 month): 100%
fraction of intact chelate ([4]; 1 week): 100%
fraction of intact chelate ([4]; 1 hour): 100%
fraction of intact chelate ([4]; 1 day): 100%
fraction of intact chelate ([5]; 1 month): 100%
fraction of intact chelate ([5]; 1 week): 100%
fraction of intact chelate ([5]; 1 hour): 100%
fraction of intact chelate ([5]; 1 day): 100%
fraction of intact chelate ([6]; 1 month): 100%
fraction of intact chelate ([6]; 1 week): 100%
fraction of intact chelate ([6]; 1 hour): 100%
fraction of intact chelate ([6]; 1 day): 100%
fraction of intact chelate ([7]; 1 month): 90%
fraction of intact chelate ([7]; 1 week): 98%
fraction of intact chelate ([7]; 1 hour): 100%
fraction of intact chelate ([7]; 1 day): 100%

O=C1C[N@@]2CC[N@]3CC[N@@](CC[N@](CC2)Cc2cccc(n2)-c2cnnn2Cc2cc(-c4ccccc4)cc(n2)C3)CC(=O)[O][Tb][O]1 [TD600]
fraction of intact chelate ([4]; 1 month): 100%
fraction of intact chelate ([4]; 1 week): 100%
fraction of intact chelate ([4]; 1 hour): 100%
fraction of intact chelate ([4]; 1 day): 100%
fraction of intact chelate ([5]; 1 month): 23%
fraction of intact chelate ([5]; 1 week): 78%
fraction of intact chelate ([5]; 1 hour): 99%
fraction of intact chelate ([5]; 1 day): 96%
fraction of intact chelate ([6]; 1 month): 99%
fraction of intact chelate ([6]; 1 week): 99%
fraction of intact chelate ([6]; 1 hour): 100%
fraction of intact chelate ([6]; 1 day): 100%
fraction of intact chelate ([7]; 1 month): 0%
fraction of intact chelate ([7]; 1 week): 0%
fraction of intact chelate ([7]; 1 hour): 72%
fraction of intact chelate ([7]; 1 day): 0%

O=C([O-])CN1CCN2CCN(CC(=O)[O-])CCN(CC1)Cc1cccc(n1)-c1cnnn1Cc1cc(-c3ccccc3)cc(n1)C2.[Pb+2] [TD876]
fraction of intact chelate ([4]; 1 month): 0%
fraction of intact chelate ([4]; 1 week): 0%
fraction of intact chelate ([4]; 1 hour): 6%
fraction of intact chelate ([4]; 1 day): 0%
fraction of intact chelate ([5]; 1 month): 0%
fraction of intact chelate ([5]; 1 week): 0%
fraction of intact chelate ([5]; 1 hour): 0%
fraction of intact chelate ([5]; 1 day): 0%
fraction of intact chelate ([6]; 1 month): 0%
fraction of intact chelate ([6]; 1 week): 0%
fraction of intact chelate ([6]; 1 hour): 0%
fraction of intact chelate ([6]; 1 day): 0%
fraction of intact chelate ([7]; 1 month): 0%
fraction of intact chelate ([7]; 1 week): 0%
fraction of intact chelate ([7]; 1 hour): 0%
fraction of intact chelate ([7]; 1 day): 0%

Source: US20250147039A1, “Compounds for complexation of rare earth elements and/or s-, p-, d- block metals, their coordination compounds, peptide conjugates, method of their preparation and use thereof” (USTAV ORGANICKE CHEMIE A BIOCHEMIE AV CR V.V.I., priority 2021, published 2025)
